From patent US8008452B2, “Phosphorylated Ndr kinase” (Novartis Forschungesstiftung, Zweigniederlassung Friedrich …, priority 2002, dated 2011)

Key:
GST-NDR1 [1] = experiment: GST-NDR1 in vitro autophosphorylation, incorporated 32P by Cerenkov counting; assay type: biochemical, human; conditions: for amount of incorporated 32P (autophosphorylation), −S100B / amount of incorporated 32P (autophosphorylation), +S100B: GST-NDR1 variant; for amount of incorporated 32P (autophosphorylation), −S100B: 1 microgram, autophosphorylated 2 hours without further additions, pmol ATP/pmol GST-NDR1; for amount of incorporated 32P (autophosphorylation), +S100B: 2 hours in the presence of 1 mM CaCl2 and 10 microM bovine S100B, in pmol ATP/pmol GST-NDR1; for autophosphorylation rate of GST-NDR1 mutant (in words): compared with wild type
Description: BL21-DE3-pRep4 E. coli strain was transformed with the pGEX-2T_NDR1 wild type or mutant plasmids. BL21-DE3 is a protease-deficient E. coli strain and pRep4 is a Laclq repressor-bearing plasmid both available commercially. Optionally, if desired, an E. coli strain comprising GroESL can be used, which expresses a chaperone protein that stabilizes the kinase. Mid-logarithmic phase cells were induced with 0.5 mM isopropyl beta-D-thiogalactopyranoside (IPTG) for 4 hours at 30° C. Bacteria were lysed using a French press in the presence of 1 mg/ml lysosyme, and the fusion proteins were purified on glutathione-agarose (Amersham Pharmacia Biotech) as described by the manufacturers. Recombinant proteins were assayed for kinase activity as described below and autophosphorylation was determined after SDS-PAGE separation either by Cerenkov counting or by exposure to a PhosphorImager screen followed by analysis with ImageQuant software (Molecular Dynamics).
In brief, 1 microgram of purified GST-NDR1 (in solution ˜0.5 microM) wild type, kinase dead (K118A), and alanine mutants of phosphorylation residues Thr74, Ser281, and Thr444 were autophosphorylated for 2 hours in vitro without further additions or in the presence of 1 mM CaCl2 and 10 microM bovine S100B. Proteins were visualized on SDS gels using Coomassie Blue R-350 stained SDS-PAGE gel, and [gamma-^32P]ATP-labelled proteins were visualized by autoradiography of the gels developed on a Phosphorimager screen. The amount of incorporated ^32P was quantified by Cerenkov counting.

HA-NDR1 = experiment: Immunodetection of HA-NDR1 phosphorylated on Ser281 or Thr444 from COS-1 cells; assay type: cell-based, human
Description: (§1) Either 1 microgram GST-NDR1 or HA-NDR1 immunoprecipitated from 100 microgram COS-1 detergent extracts as described above was separated on 10% SDS-PAGE and immunoblotted 2 h at RT or overnight at 4° C. with anti-Ser281P antisera (1:1000) in the presence of 50 microg/ml competing unphosphopeptide or anti-Thr444P purified antibody (1:500). Both antibodies were detected with horseradish peroxidase-conjugated donkey anti-rabbit Ig antibody (Amersham biosciences) and developed by ECL (chemiluminescence; Amersham Pharmacia Biotech).
To examine this possibility, extracts from transfected COS-1 cells were analyzed with the anti-Ser281P and anti-Thr444P antisera. Protein extracts (10 microg) from transfected COS-1 cells were immunoblotted with 12CA5 to verify similar expression levels of each HA-NDR1 construct. For the analysis of phosphorylation status, 12CA5-immunoprecipitated HA-NDR1 variants (out of 100 microg protein extract) were analysed by immunoblotting with phosphospecific antibodies directed against P-S281 or P-T444.
Protein extracts (10 microg) from mock- and HA-NDR1-transfected COS-1 cells were also immunoblotted with 12CA5 to verify equal expression levels of HA-NDR1 construct. For the analysis of phosphorylation status, 12CA5-immunoprecipitated HA-NDR1 (out of 100 microgram protein extract) was analysed by immunoblotting with phosphospecific antibodies directed against P-S281 or P-T444.

GST-NDR1 [2] = experiment: Immunodetection of GST-NDR1 phosphorylated on Ser281 or Thr444 after in vitro autophosphorylation; assay type: biochemical, human; conditions: in vitro autophosphorylation with or without Ca2+/S100B
Description: as §1
To reliably quantify the effect of S100B on NDR1 phosphorylation status, rabbit polyclonal antibodies were raised against phosphoepitopes comprising Ser281 or Thr444. GST-NDR1 mutants were treated essentially as described in Example 2 and detected either with anti-NDR1_C-term antiserum or polyclonal antibodies recognising NDR1 phosphorylated on Ser281 or Thr444.

GST-NDR1 [3] = molecular target: T1, GST-NDR1 (Homo sapiens, UniProt Q15208, T444A); experiment: GST-NDR1 kinase assay (peptide kinase assay); assay type: biochemical; conditions: compared with wild type
T1 construct: made in house; host or cells: E. coli BL21-DE3-pRep4
Description: 1 microgram of purified recombinant GST-NDR1 wild type and mutants (without further treatment or autophosphorylated for 2 h in the presence or absence of 1 mM CaCl2 and […] (Sigma)) were assayed in 20 microliter of reaction mixture containing 20 mM Tris-HCl pH 7.5, 10 mM MgCl2, 1 mM DTT, 100 microM [gamma-^32P]ATP (˜0.5 microCi/microliter), and 1 mM NDR1 substrate peptide ([…]; SEQ ID NO:22). After 30 mins incubation at 30° C., reactions were stopped with 50 mM EDTA, and 10 microliters of reaction mixture were spotted onto 2 cm^2 squares of P81 phosphocellulose paper (Whatman). These were subsequently washed for 4×5 min and 3×20 min in 1% phosphoric acid and once in acetone before counting in a liquid scintillation counter. One unit of NDR1 activity was defined as the amount which catalyses the phosphorylation of 1 nmol peptide substrate in 1 min.
Specific activity of GST-NDR1 mutants was also measured by a peptide kinase assay as described above. For this purpose, 1 microgram of purified GST-NDR1 wild type and alanine mutants were left without further treatment or autophosphorylated for 2 h in the presence or absence of 1 mM CaCl2 and […].

T1 sequence (Q15208 whole entry T444A): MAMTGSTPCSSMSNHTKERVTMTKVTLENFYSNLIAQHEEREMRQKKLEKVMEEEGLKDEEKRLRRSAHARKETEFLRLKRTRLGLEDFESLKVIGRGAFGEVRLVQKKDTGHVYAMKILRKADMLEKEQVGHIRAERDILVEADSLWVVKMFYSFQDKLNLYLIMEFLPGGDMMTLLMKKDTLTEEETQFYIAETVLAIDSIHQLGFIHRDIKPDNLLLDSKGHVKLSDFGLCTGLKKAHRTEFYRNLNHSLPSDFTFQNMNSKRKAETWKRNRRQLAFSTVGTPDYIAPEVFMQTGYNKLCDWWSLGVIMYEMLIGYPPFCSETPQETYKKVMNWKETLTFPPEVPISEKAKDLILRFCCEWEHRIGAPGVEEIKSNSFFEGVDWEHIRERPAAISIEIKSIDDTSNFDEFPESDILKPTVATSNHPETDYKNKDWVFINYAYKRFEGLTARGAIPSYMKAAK

Substance	amount of incorporated 32P (autophosphorylation), −S100B (GST-NDR1 [1])	amount of incorporated 32P (autophosphorylation), +S100B (GST-NDR1 [1])	autophosphorylation rate of GST-NDR1 mutant (in words) (GST-NDR1 [1])	phosphorylation of HA-NDR1 on Ser281 (HA-NDR1; immunoblot with anti-P-S281)	phosphorylation of HA-NDR1 on Thr444 (HA-NDR1; immunoblot with anti-P-T444)	phosphorylation of GST-NDR1 on Ser281 and Thr444 (phosphospecific antibodies) (GST-NDR1 [2])	decrease of kinase activity of GST-NDR1 mutant (GST-NDR1 [3])
K118A: NDR1 kinase dead mutant, Lys 118 to alanine; GST fusion or HA-tagged	0.0076	0.0064	did not show detectable autophosphorylation	did not display any phophorylation on this position	became phosphorylated even after abolishing the kinase activity	–	–
T74A: NDR1 alanine mutant of phosphorylation residue Thr74; GST fusion or HA-tagged	0.158	0.2072	negligible reduction	–	–	abolished the S100B-mediated increase of phosphorylation for both Ser281 and Thr444 residues	–
T444A: NDR1 alanine mutant of phosphorylation residue Thr444; GST fusion or HA-tagged	0.1232	0.2412	significant decrease	–	–	almost normal autophosphorylation on Ser281	about 5 fold
